The values below come from PubChem BioAssay (NCI).

Among the test systems are HT29 colon; IGROV1 ovarian; NCI-H522 lung; OVCAR-3 ovarian; SF-268 CNS; TK-10 renal; U251 CNS; UACC-257 melanoma; MALME-3M melanoma.
Assay in all cases: inhibition of tumour cell growth, NCI panel, 48 h

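Growth conditions: 96-well plates. Treatment: test compound, 48 hours, 5 concentrations. Analysis: linear interpolation between bracketing concentrations; unreached endpoints set to highest concentration. Definition used: TGI = concentration required for complete inhibition of growth.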

For `COc1ccc2nccc(C3OC(=O)N4CCC(=O)CC34)c2c1` (stereo not given), the TGI was more than 100 µM with HT29 colon; more than 100 µM with IGROV1 ovarian; 28.7 µM in the assay on NCI-H522 lung; more than 100 µM with OVCAR-3 ovarian; more than 100 µM in the assay on SF-268 CNS; more than 100 µM with TK-10 renal. Moreover, the TGI in the assay with U251 CNS and with UACC-257 melanoma was more than 100 µM each time.

Take `COC(=O)C1CCC2(CC1)NC(=O)NC2=O` (stereo not given): the TGI in the assay on HT29 colon, in the assay with IGROV1 ovarian, with MALME-3M melanoma, in the assay on NCI-H522 lung, in the assay on OVCAR-3 ovarian and with SF-268 CNS was more than 100 µM each time. Further, the TGI with TK-10 renal, with U251 CNS and with UACC-257 melanoma was more than 100 µM in each case.

As to `O=S(O)CCCSSCCCCSSCCCS(=O)O`, the TGI with HT29 colon, in the assay with IGROV1 ovarian, with MALME-3M melanoma, in the assay with NCI-H522 lung, with OVCAR-3 ovarian and in the assay on SF-268 CNS was more than 100 µM in each case. The TGI with TK-10 renal, in the assay with U251 CNS and in the assay with UACC-257 melanoma was more than 100 µM throughout.

Take `COc1cc(C2C(C(=O)Nc3ccc(Cl)c(Cl)c3)=C(C)NC(C)=C2C(=O)Nc2ccc(Cl)c(Cl)c2)ccc1O`: the TGI turned out to be 31.7 µM with HT29 colon; 42 µM in the assay with IGROV1 ovarian; 27.3 µM in the assay on MALME-3M melanoma; 14.7 µM with NCI-H522 lung; 27.7 µM in the assay on OVCAR-3 ovarian; 30.8 µM with SF-268 CNS. For the same compound, the values for the TGI in the assay on TK-10 renal, in the assay on U251 CNS and in the assay on UACC-257 melanoma were 42.6 µM, 34.7 µM and 28.7 µM, respectively.

Turning to `Cc1cn2cc(-c3ccncc3)nc2s1`, the TGI in the assay on HT29 colon, with IGROV1 ovarian, in the assay with MALME-3M melanoma, in the assay on NCI-H522 lung, in the assay on OVCAR-3 ovarian and in the assay with SF-268 CNS was more than 100 µM throughout. In addition, the TGI with TK-10 renal, in the assay with U251 CNS and with UACC-257 melanoma was more than 100 µM in each case.

Consider `COc1cc(/C=C/C(=O)C(C)(C)C)cc(OC)c1OC`, for which the TGI with HT29 colon, in the assay on MALME-3M melanoma, with NCI-H522 lung, in the assay with OVCAR-3 ovarian, in the assay with SF-268 CNS and in the assay with TK-10 renal was more than 100 µM throughout. Also, the TGI in the assay on U251 CNS and in the assay with UACC-257 melanoma was more than 100 µM in each case.

Take `CCCCCC1C2C(=O)NC(=O)C1C(=O)NC2=O` (stereo not given): the TGI in the assay on HT29 colon, in the assay with IGROV1 ovarian, in the assay with MALME-3M melanoma, in the assay on NCI-H522 lung, in the assay with OVCAR-3 ovarian and in the assay with SF-268 CNS was more than 100 µM each time. Besides, the TGI in the assay on TK-10 renal and with UACC-257 melanoma was more than 100 µM in each case.

For the compound `CC(C)CCC[C@@H](C)[C@H]1CC[C@H]2[C@@H]3CC=C4CC(OCCCCN(O)CCCSC5OC(CO)C(O)C(O)C5O)CC[C@]4(C)[C@H]3CC[C@]12C` (stereo not given in full), the TGI in the assay with HT29 colon is more than 100 µM; with IGROV1 ovarian it was 50 µM; with NCI-H522 lung, 49.6 µM; in the assay with SF-268 CNS, more than 100 µM; with TK-10 renal it was more than 100 µM; with U251 CNS it was 75.1 µM. In addition, in the assay on UACC-257 melanoma, the TGI is more than 100 µM.

For the compound `O=c1c2ccccc2nc(-c2ccccc2Cl)n1NC1OC(CO)C(O)C(O)C1O` (stereo not given), the TGI in the assay with HT29 colon, in the assay with IGROV1 ovarian, in the assay on MALME-3M melanoma, in the assay on NCI-H522 lung, with OVCAR-3 ovarian and with SF-268 CNS was more than 100 µM each time. In addition, the TGI in the assay with TK-10 renal, in the assay on U251 CNS and with UACC-257 melanoma was more than 100 µM throughout.

For `CC(=O)NC1C(=O)CC(c2ccccc2)N(C)C1c1ccccc1` (stereo not given), the TGI with HT29 colon, in the assay with IGROV1 ovarian, in the assay with MALME-3M melanoma, with NCI-H522 lung, with OVCAR-3 ovarian and in the assay with SF-268 CNS was more than 100 µM in each case. Further, the TGI in the assay with TK-10 renal, in the assay on U251 CNS and in the assay on UACC-257 melanoma was more than 100 µM in each case.

Turning to `Cc1nc2c(=O)n(C)c(=O)nc-2n(-c2ccc(Cl)cc2)c1C`, the TGI in the assay on HT29 colon, with IGROV1 ovarian, in the assay with MALME-3M melanoma, with NCI-H522 lung, in the assay on OVCAR-3 ovarian and in the assay on SF-268 CNS was more than 100 µM throughout. Further, the TGI in the assay on TK-10 renal, in the assay on U251 CNS and with UACC-257 melanoma was more than 100 µM each time.

As for `CC1CCCC2(O1)OC1CC(=O)OC1C1=C2C(=O)c2ccccc2C1=O` (stereo not given), the TGI in the assay with HT29 colon was found to be 11 µM; with IGROV1 ovarian it was 6.87 µM; with MALME-3M melanoma it was 4.43 µM; in the assay on NCI-H522 lung, 3.65 µM; in the assay on OVCAR-3 ovarian it was 10.5 µM; in the assay with SF-268 CNS, 14.9 µM. In addition, the TGI in the assay with TK-10 renal came to 21 µM; in the assay with U251 CNS it was 32.5 µM; in the assay on UACC-257 melanoma it was 3.95 µM.

In the case of `O=C1OC2C(O)COC2(OCc2c[nH]c3ccccc23)C1O` (stereo not given) (tested in a mixture with another compound), the TGI in the assay on HT29 colon, with IGROV1 ovarian, in the assay with MALME-3M melanoma, in the assay with NCI-H522 lung, in the assay with OVCAR-3 ovarian and in the assay with SF-268 CNS was more than 100 µM throughout. Besides, the TGI in the assay on TK-10 renal, with U251 CNS and in the assay with UACC-257 melanoma was more than 100 µM in each case.

For `O=C1c2ccccc2CC1C1(O)C(=O)Nc2c(Cl)cc(Cl)cc21` (stereo not given), the TGI was more than 100 µM with HT29 colon; more than 100 µM with MALME-3M melanoma; 47.3 µM in the assay with NCI-H522 lung; more than 100 µM in the assay with OVCAR-3 ovarian; more than 100 µM in the assay with SF-268 CNS; more than 100 µM with TK-10 renal. The TGI with U251 CNS and in the assay with UACC-257 melanoma was more than 100 µM throughout.

Regarding `COc1ccc(/C=C(\NC(=O)c2ccccc2)c2nc3ccccc3[nH]2)cc1`, the TGI in the assay on HT29 colon, in the assay with IGROV1 ovarian, in the assay with MALME-3M melanoma, in the assay with NCI-H522 lung, with OVCAR-3 ovarian and in the assay with SF-268 CNS was more than 100 µM throughout. In addition, the TGI with U251 CNS was more than 100 µM; in the assay with UACC-257 melanoma, 58.7 µM.

For the compound `COCC(O)CN1C(N)=NC(O)C1O` (stereo not given), the TGI in the assay on HT29 colon, with MALME-3M melanoma, with NCI-H522 lung, with SF-268 CNS, in the assay with TK-10 renal and in the assay with U251 CNS was more than 100 µM in each case. In the assay with UACC-257 melanoma, this compound registered a TGI of more than 100 µM.
